Experimental data: patent US20240269139A1, “COMPOUNDS FOR TARGETED PROTEIN DEGRADATION OF KINASES” (DANA-FARBER CANCER INSTITUTE, INC., priority 2020, published 2024)
Where two headings read alike, the source gives them in different places.

Assays:
Type in all cases: cell-based
[1] = molecular target: protein kinases (human kinome) (Homo sapiens, UniProt P19525); settings: for logFC: EIF2AK2 (P19525)
[2] = molecular target: T1, protein kinases (human kinome) (Homo sapiens, UniProt Q8TBX8); settings: PIP4K2C Q8TBX8-1
T1 sequence (Q8TBX8 1-421): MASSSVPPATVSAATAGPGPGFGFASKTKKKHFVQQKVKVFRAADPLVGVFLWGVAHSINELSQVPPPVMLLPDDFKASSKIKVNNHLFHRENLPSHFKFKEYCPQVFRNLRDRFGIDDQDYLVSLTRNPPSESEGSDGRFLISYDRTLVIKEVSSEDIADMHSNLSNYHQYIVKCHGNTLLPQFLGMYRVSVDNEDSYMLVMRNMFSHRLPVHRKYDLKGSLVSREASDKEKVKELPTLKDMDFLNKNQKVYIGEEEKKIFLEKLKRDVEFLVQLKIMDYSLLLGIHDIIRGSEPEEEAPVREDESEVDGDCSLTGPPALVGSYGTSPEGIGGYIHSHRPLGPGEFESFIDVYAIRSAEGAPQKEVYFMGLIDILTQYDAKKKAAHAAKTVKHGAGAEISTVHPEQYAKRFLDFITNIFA

[3] = molecular target: protein kinases (human kinome) (Homo sapiens, UniProt Q9H3S4); settings: TPK1 (Q9H3S4); experiment wp114
[4] = molecular target: T2, protein kinases (human kinome) (Homo sapiens, UniProt Q96D53); settings: experiment wp137; for logFC: COQ8B (Q96D53-1)
T2 sequence (Q96D53 1-544): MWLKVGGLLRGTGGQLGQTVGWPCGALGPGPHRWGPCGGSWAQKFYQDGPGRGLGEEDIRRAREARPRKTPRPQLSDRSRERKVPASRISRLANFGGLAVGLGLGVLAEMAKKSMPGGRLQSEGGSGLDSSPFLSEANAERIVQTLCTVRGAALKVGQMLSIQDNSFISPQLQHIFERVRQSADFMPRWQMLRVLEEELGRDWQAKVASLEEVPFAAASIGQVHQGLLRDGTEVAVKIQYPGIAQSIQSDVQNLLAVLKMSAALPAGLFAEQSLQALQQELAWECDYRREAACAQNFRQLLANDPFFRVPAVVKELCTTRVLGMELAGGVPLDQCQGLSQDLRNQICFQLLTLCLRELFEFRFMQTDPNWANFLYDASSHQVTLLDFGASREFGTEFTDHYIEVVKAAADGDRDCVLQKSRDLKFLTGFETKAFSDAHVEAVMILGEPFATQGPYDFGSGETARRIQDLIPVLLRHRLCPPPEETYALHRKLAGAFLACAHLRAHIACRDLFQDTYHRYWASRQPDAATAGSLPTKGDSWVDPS

[5] = molecular target: protein kinases (human kinome) (Homo sapiens, UniProt Q9Y243); settings: AKT3 (Q9Y243-1)
[6] = molecular target: protein kinases (human kinome) (Homo sapiens, UniProt Q5TCX8); settings: for logFC: MAP3K21 (Q5TCX8); for logFC MAP3K21 (Q5TCX8): direction of change down
protein kinases (human kinome) (Homo sapiens, UniProt Q5TCX8), sequence (Q5TCX8 whole entry): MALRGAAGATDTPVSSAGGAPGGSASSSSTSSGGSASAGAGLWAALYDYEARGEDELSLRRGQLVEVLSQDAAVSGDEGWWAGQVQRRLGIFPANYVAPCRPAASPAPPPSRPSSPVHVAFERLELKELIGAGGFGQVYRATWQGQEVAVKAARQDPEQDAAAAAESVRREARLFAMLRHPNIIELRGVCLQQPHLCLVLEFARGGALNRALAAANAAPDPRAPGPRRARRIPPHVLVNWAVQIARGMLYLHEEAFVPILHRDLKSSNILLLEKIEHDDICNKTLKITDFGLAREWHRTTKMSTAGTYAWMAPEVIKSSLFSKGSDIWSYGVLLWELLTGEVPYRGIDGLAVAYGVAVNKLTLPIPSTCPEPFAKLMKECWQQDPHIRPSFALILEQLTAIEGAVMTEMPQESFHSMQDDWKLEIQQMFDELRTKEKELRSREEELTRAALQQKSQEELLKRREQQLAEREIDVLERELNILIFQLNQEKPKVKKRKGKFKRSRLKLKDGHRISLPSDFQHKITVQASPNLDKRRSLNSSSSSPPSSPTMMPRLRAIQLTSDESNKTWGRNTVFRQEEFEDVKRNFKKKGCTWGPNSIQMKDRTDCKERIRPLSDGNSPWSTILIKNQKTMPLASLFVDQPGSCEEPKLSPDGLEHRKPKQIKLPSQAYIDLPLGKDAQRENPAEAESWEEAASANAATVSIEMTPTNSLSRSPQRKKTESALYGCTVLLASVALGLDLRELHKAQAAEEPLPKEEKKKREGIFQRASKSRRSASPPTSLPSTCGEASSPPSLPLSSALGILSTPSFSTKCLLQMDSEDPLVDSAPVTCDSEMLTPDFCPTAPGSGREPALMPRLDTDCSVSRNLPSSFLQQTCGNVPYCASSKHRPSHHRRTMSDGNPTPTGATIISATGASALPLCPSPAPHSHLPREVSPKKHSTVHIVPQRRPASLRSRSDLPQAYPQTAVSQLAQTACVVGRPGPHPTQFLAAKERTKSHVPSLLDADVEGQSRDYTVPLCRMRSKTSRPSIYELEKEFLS

protein kinases (human kinome) (Homo sapiens, UniProt Q9Y243), sequence (Q9Y243 whole entry): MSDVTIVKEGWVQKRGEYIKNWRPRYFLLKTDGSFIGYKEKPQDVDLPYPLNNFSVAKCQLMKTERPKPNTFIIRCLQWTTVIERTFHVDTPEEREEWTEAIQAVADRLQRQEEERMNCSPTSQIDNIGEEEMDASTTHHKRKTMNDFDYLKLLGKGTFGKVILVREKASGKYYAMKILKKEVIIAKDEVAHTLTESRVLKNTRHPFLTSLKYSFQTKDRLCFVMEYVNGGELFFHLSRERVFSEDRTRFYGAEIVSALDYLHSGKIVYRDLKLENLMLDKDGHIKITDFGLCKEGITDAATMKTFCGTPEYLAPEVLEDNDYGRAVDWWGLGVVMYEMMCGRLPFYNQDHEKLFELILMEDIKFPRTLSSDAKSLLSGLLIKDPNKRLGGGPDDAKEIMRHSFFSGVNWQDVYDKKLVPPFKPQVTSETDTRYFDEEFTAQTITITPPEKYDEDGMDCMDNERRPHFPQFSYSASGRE
protein kinases (human kinome) (Homo sapiens, UniProt P19525), sequence (P19525 whole entry): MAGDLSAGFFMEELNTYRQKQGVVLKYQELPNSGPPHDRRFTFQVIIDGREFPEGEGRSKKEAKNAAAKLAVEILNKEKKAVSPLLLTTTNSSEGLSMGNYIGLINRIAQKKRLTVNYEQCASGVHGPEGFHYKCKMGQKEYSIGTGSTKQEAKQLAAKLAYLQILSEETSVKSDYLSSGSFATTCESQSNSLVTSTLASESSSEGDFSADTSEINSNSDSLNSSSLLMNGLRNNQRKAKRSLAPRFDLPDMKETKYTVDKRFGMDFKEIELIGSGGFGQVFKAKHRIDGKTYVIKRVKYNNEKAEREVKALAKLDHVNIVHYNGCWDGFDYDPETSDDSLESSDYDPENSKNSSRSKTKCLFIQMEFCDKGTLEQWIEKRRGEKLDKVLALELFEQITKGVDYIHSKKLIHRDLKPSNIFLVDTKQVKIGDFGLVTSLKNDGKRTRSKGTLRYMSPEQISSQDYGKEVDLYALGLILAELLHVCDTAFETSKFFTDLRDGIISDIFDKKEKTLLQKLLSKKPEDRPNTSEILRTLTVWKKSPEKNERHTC
protein kinases (human kinome) (Homo sapiens, UniProt Q9H3S4), sequence (Q9H3S4 whole entry): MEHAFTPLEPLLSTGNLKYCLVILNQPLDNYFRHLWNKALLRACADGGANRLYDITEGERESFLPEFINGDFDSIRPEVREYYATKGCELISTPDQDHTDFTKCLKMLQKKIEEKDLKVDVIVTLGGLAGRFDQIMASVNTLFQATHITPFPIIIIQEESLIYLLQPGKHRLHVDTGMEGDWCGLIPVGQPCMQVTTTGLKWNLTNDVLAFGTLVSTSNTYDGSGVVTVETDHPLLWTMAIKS

Structure (SMILES): CS(=O)(=O)Nc1cccc(-c2csc3cnc(Nc4ccc(N5CCN(CCCCCOc6cccc7c6C(=O)N(C6CCC(=O)NC6=O)C7=O)CC5)cc4)nc23)c1 (centres unmarked) [DB0614, N-(3-(2-((4-(4-(5-((2-(2,6-Dioxopiperidin-3-yl)-1,3-dioxoisoindolin-4-yl)oxy)pentyl)piperazin-1-yl)phenyl)amino)thieno[3,2-d]pyrimidin-7-yl)phenyl)methanesulfonamide]
- logFC ([1]; experiment wp117): −0.3221
- logFC of EIF2AK2 (P19525) ([1]; Experiment wp117): −0.3221

Structure (SMILES): Cc1ccc(NC(=O)c2cccc(C(F)(F)F)c2)cc1N1Cc2cnc(Nc3ccc(N4CCN(Cc5cn(CCCCCOc6cccc7c6C(=O)N(C6CCC(=O)NC6=O)C7=O)nn5)CC4)nc3)nc2N(C)C1=O (centres unmarked) [DB0646, N-(3-(7-((6-(4-((1-(5-((2-(2,6-Dioxopiperidin-3-yl)-1,3-dioxoisoindolin-4-yl)oxy)pentyl)-1H-1,2,3-triazol-4-yl)methyl)piperazin-1-v)pyridin-3-yl)amino)-1-methyl-2-oxo-1,4-dihydropyrimido[4,5-d]pyrimidin-3(2H)-yl)-4-methylphenyl)-3-(trifluoromethyl)benzamide]
- logFC ([2]; experiment wp107): −0.353
- logFC ([2]; experiment wp117): −0.3503
- logFC ([2]; experiment wp160, 8 hr): −0.4714
- logFC [3]: −1.144

Structure (SMILES): CC(C)(C)c1nc(-c2cccc(NS(=O)(=O)c3c(F)cccc3F)c2F)c(-c2ccnc(NCCOCCNC(=O)CCOCCOCCNc3cccc4c3C(=O)N(C3CCC(=O)NC3=O)C4=O)n2)s1 (centres unmarked) [DD.03.106]
- logFC ([1]; experiment wp147, 2 uM): −0.3545
- logFC ([1]; experiment wp147, 4 uM): −0.4042
- logFC of EIF2AK2 (P19525) ([1]; Experiment wp147, 2 uM): −0.3545
- logFC of EIF2AK2 (P19525) ([1]; Experiment wp147, 4 uM): −0.4042
- logFC [4]: −0.3442
- logFC of COQ8B (Q96D53-1) [4]: −0.3442

Structure (SMILES): Cc1ncsc1-c1ccc([C@H](C)NC(=O)[C@@H]2C[C@@H](O)CN2C(=O)[C@@H](NC(=O)CCOCCOCCN2CCN(c3ccc(Nc4ncc(Cl)c(Nc5ccccc5S(=O)(=O)C(C)C)n4)cc3)CC2)C(C)(C)C)cc1 [FMF.06.098.1]
- logFC [3]: −0.8744

Structure (SMILES): C[C@@H]1C[C@@H](O)c2ncnc(N3CCN(C(=O)[C@H](CNCCCCCCCCCCc4cccc5c4C(=O)N(C4CCC(=O)NC4=O)C5=O)c4ccc(Cl)cc4)CC3)c21 (some centres unmarked) [INY.03.041.01]
- logFC ([5]; experiment wp118): −2.769
- logFC ([5]; experiment wp118, direction down): −2.769
- logFC ([5]; experiment wp135, 4 hr): −1.925
- logFC ([5]; experiment wp135, 4 hr, direction down): −1.925

Structure (SMILES): CC(C)S(=O)(=O)c1ccccc1Nc1nc(Nc2ccc(N3CCN(CCOCCNC(=O)CNc4cccc5c4C(=O)N(C4CCC(=O)NC4=O)C5=O)CC3)cc2)ncc1Cl (centres unmarked) [SK.3.91]
- logFC ([6]; experiment wp133, 4 hr): −0.4685
- logFC MAP3K21 (Q5TCX8) ([6]; experiment wp133, 4 hr): −0.4685
- logFC ([5]; experiment wp105): −0.7783
- logFC ([5]; experiment wp105, direction down): −0.7783

Structure (SMILES): CC(C)S(=O)(=O)c1ccccc1Nc1nc(Nc2ccc(N3CCN(CCOCCOCCNC(=O)CNc4cccc5c4C(=O)N(C4CCC(=O)NC4=O)C5=O)CC3)cc2)ncc1Cl (centres unmarked) [TL12.186]
- logFC ([6]; experiment wp131): −0.969
- logFC MAP3K21 (Q5TCX8) ([6]; experiment wp131): −0.969
- logFC [4]: −0.4934
- logFC of COQ8B (Q96D53-1) [4]: −0.4934

Structure (SMILES): Nc1ncc(-c2ccc(S(=O)(=O)N(CCCNC(=O)CCOCCOCCOCCOCCOCCNc3cccc4c3C(=O)N(C3CCC(=O)NC3=O)C4=O)C3CC3)cc2)cc1-c1ccc2c(c1)CCNC2=O (centres unmarked) [WH.10417.099]
- logFC ([2]; experiment wp056): −0.5009
- logFC ([2]; experiment wp103): −0.5201
- logFC ([2]; experiment wp105): −0.3715
- logFC ([2]; experiment wp107): −0.5734
